*1 amine or outer side, *2 acyl side, *3 side chain or, on linkers, in order; H or OH if unused. Where a SMILES comes first, the peptide text is derived from it. Bridges are numbered along the chain shown (N, C = ends). [ ]: non-standard residue; d: D form. The star is where a group is joined. hPhe(3-Cl-4-CF3) = N[C@@H](CCc1ccc(C(F)(F)F)c(Cl)c1)C(=O)O; NPrPhe(4-CF3) = CCCN[C@@H](Cc1ccc(C(F)(F)F)cc1)C(=O)O; X7 = CCN([C@H](C(=O)[*:2])C1CCCC1)[*:1]; NMeD = CN[C@@H](CC(=O)O)C(=O)O; NMeL = CN[C@@H](CC(C)C)C(=O)O; Morpholide = C1CN(*)CCO1; Ac4c = NC1(C(=O)O)CCC1; Sar = CNCC(=O)O
Legend:
[1] = target: GDP-bound KRAS wild-type protein (Homo sapiens, UniProt P01116); experiment: Binding to KRAS by surface plasmon resonance (SPR), Single Cycle Kinetics; settings: SPR, Single Cycle Kinetics, GDP-bound KRAS wild-type protein; read-out: KRAS KD
Chain of GDP-bound KRAS wild-type protein (P01116 whole entry): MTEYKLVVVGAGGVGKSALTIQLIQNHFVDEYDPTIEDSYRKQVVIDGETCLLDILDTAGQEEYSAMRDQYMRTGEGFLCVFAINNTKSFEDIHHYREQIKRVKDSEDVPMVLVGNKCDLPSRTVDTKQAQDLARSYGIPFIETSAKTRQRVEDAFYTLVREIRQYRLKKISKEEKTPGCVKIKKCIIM

[2] = target: GDP-bound NRAS wild-type protein (Homo sapiens, UniProt P01111); experiment: Binding to NRAS by surface plasmon resonance (SPR), Single Cycle Kinetics; settings: ratio of KD for GDP-bound NRAS wild-type protein to KD for KRAS, SPR
Chain of GDP-bound NRAS wild-type protein (P01111 whole entry): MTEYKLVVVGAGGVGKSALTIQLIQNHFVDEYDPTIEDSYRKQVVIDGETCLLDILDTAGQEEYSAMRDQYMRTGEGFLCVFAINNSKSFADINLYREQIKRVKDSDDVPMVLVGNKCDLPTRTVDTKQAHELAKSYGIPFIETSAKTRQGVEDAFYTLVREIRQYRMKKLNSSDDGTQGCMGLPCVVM

[3] = target: GDP-bound HRAS wild-type protein (Homo sapiens, UniProt P01112); experiment: Binding to HRAS by surface plasmon resonance (SPR), Single Cycle Kinetics; settings: ratio of KD for GDP-bound HRAS wild-type protein to KD for KRAS, SPR
Chain of GDP-bound HRAS wild-type protein (P01112 whole entry): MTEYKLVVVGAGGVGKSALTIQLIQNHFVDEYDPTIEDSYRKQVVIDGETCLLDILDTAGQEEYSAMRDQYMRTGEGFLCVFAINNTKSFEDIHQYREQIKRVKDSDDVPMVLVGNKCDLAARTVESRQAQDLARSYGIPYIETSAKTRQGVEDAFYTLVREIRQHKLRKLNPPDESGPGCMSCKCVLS

[4] = tested on: human lung cancer strain NCI-H441; experiment: cells; settings: NCI-H441, 96 h, read-out: NCI-H441 IC50 (nM), NCI-H441 cell proliferation, 4 days, CellTiter-Glo;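 note: cell proliferation inhibition after four days measured by CellTiter-Glo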

| Compound | Kd [1] [nM] | IC50 [4] [nM] | NRAS/KRAS (KD ratio) [2] | HRAS/KRAS (KD ratio) [3] |
| --- | --- | --- | --- | --- |
| CCCN(C)C(=O)[C@@H]1CC(=O)N(C)[C@@H](CC(C)C)C(=O)N[C@@H]([C@@H](C)OC)C(=O)N(C)CC(=O)N(C)[C@H]2C/C=C\CCN(C2=O)[C@@H](Cc2ccc(C(F)(F)F)cc2)C(=O)N(C)CC(=O)N[C@@H](CCc2cc(F)c(C(F)(F)F)c(F)c2)C(=O)N2C[C@H](OCC)C[C@H]2C(=O)NC2(CC(C)(C)C2)C(=O)N(C)[C@@H](C2CCCC2)C(=O)N1C [PP1917] | 0.29 | 22.5 | A (a compound having 10 or more and less than 20 is denoted as A) | A (a compound having 10 or more and less than 20 is denoted as A) |
| CCO[C@@H]1C[C@H]2C(=O)NC3(CCC3)C(=O)N(C)[C@@H](C3CCCC3)C(=O)N3CCC[C@@H]3CC(=O)N(C)[C@@H](CC3CC3)C(=O)N[C@@H]([C@@H](C)CC)C(=O)N(C)CC(=O)N(C)[C@H]3C/C=C\CCN(C3=O)[C@@H](Cc3ccc(C(F)(F)F)cc3)C(=O)N(C)CC(=O)N[C@@H](CCc3ccc(C(F)(F)F)c(OC)c3)C(=O)N2C1 [PP1616] | 0.29 | 33.5 | B (a compound having 3 or more and less than 10 is denoted as B) | B (a compound having 3 or more and less than 10 is denoted as B) |
| CCCN1C(=O)CN(C)C(=O)CN(C)C(=O)[C@H]([C@@H](C)CC)NC(=O)[C@H](CC(C)C)N(C)C(=O)C[C@@H](C(=O)N2CCOCC2)N(C)C(=O)[C@H](C2CCCC2)N(CC)C(=O)C2(CCC2)NC(=O)[C@@H]2CCCN2C(=O)[C@H](CCc2ccc(C(F)(F)F)c(Cl)c2)NC(=O)CN(C)C(=O)[C@@H]1Cc1ccc(C(F)(F)F)cc1 [PP1952] ([NMeL]I[Sar][Sar][NPrPhe(4-CF3)][Sar][hPhe(3-Cl-4-CF3)]P[Ac4c][X7][NMeD]-Morpholide; lactam N-11) | 0.13 | 14 | B (a compound having 3 or more and less than 10 is denoted as B) | B (a compound having 3 or more and less than 10 is denoted as B) |
| CCO[C@@H]1C[C@H]2C(=O)NC3(CC(C)(C)C3)C(=O)N(C)[C@@H](C3CCCC3)C(=O)N(C)[C@H](C(=O)N(C)C)CC(=O)N(C)[C@@H](COC)C(=O)N[C@@H]([C@@H](C)CC)C(=O)N(C)CC(=O)N(C)[C@H]3C/C=C\CCN(C3=O)[C@@H](Cc3ccc(C(F)(F)F)cc3)C(=O)N(C)CC(=O)N[C@@H](CCc3ccc(C(F)(F)F)c(Cl)c3)C(=O)N2C1 [PP1753] | 0.038 | 5.9 | A (a compound having 10 or more and less than 20 is denoted as A) | A (a compound having 10 or more and less than 20 is denoted as A) |

Further lines, with some results ahead:

| Kd [1] [nM] | IC50 [4] [nM] | Compound | NRAS/KRAS (KD ratio) [2] | HRAS/KRAS (KD ratio) [3] |
| --- | --- | --- | --- | --- |
| 0.17 | 47.8 | CC[C@H](C)[C@@H]1NC(=O)[C@H](CC(C)C)N(C)C(=O)C[C@@H](C(=O)N(C)C)N(C)C(=O)[C@H](C2CCCC2)N(C)C(=O)C2(CCC2)NC(=O)[C@@H]2C[C@@H](C)CN2C(=O)[C@H](CCc2ccc(C(F)(F)F)c(OC)c2)NC(=O)CN(C)C(=O)[C@H](Cc2ccc(C)cc2)N2CC/C=C\C[C@@H](C2=O)N(C)C(=O)CN(C)C1=O [PP1867] | A (a compound having 10 or more and less than 20 is denoted as A) | B (a compound having 3 or more and less than 10 is denoted as B) |
| 0.036 | 5.1 | CCO[C@@H]1C[C@H]2C(=O)NC3(CC(C)(C)C3)C(=O)N(C)[C@@H](C3CCCC3)C(=O)N(C)[C@H](C(=O)N(C)C)CC(=O)N(C)[C@@H](C)C(=O)N[C@@H]([C@@H](C)CC)C(=O)N(C)CC(=O)N(C)[C@H]3C/C=C\CCN(C3=O)[C@@H](Cc3ccc(C(F)(F)F)cc3)C(=O)N(C)CC(=O)N[C@@H](CCc3ccc(C(F)(F)F)c(OC)c3)C(=O)N2C1 [PP1674] | A (a compound having 10 or more and less than 20 is denoted as A) | A (a compound having 10 or more and less than 20 is denoted as A) |
